Data taken from US8193248B2, “Contraceptive composition” (Starpharma Pty Limited, priority 2006, dated 2012).

How the values were obtained:
[1] = tested on: motile sperm (normal semen sample); experiment: modified Sander-Cramer Assay, spermicidal activity; assay type: cell-based; conditions: control; 30 seconds at room temperature
Procedure: This assay determines the sperm-immobilising minimum effective concentration (MEC).
Serial two-fold dilutions were prepared from stock solutions at 2% (for water soluble compounds) or 4% (for water insoluble compounds). 250 μL of each dilution were mixed with […] of a normal semen sample containing 60×10^6 motile sperm/mL. Normality of the semen samples was assessed with the aid of a CASA system (Hamilton-Thorne, IVOS; Beverly, Mass.). Semen and compound aliquots were microscopically examined while incubating at room temperature for 30 seconds. If any motile spermatozoon were found, either in the initial examination or after one hour incubation in medium, that dilution was labelled as “failed”. The MEC for a given compound was calculated using the highest dilution that induces total sperm immobilization. 6 to 10 semen samples were used to obtain more reliable results. N9 (MEC=˜0.1-0.2 mg/mL) and solvents were run as control.

[2] = tested on: herpes simplex virus type 2 (HSV-2); conditions: previous studies, cited from earlier work

With Nonoxynol-9 [N9] as the substance, how does the “sperm-immobilising minimum effective concentration (MEC)” value [1] read?
The value was 0.1 to 0.2 mg/mL.

What about the “animals infected with HSV-2” value [2] of the same substance?
Its value is 29 out of 42.

What about the “relative susceptibility to HSV-2 infection vs control animals” value ([2]; effective ID of low-dose inoculum in test mice / ID in controls) of the same substance?
The value was 29.7 times.
